Our source for the IC50 values is US20240294551A1 (AMGEN INC., priority 2022, published 2024).

In test [1] the target is GDP-bound KRAS protein (aa 1-169), containing both G12D and C118A amino acid substitutions (Homo sapiens (Human), UniProt P01116, C118A/G12D). The test is described as follows: KRAS G12D Coupled Nucleotide Exchange Assay. The format is biochemical. How it is done:
KRAS G12D Coupled Nucleotide Exchange Assay
Following compound pre-incubation, purified SOS protein (aa 564-1049) and GTP (Roche 10106399001) were added to the assay wells and incubated for an additional 30 min. To determine the extent of inhibition of SOS-mediated nucleotide exchange, purified GST-tagged cRAF (aa 1-149), nickel chelate AlphaLISA acceptor beads (PerkinElmer AL108R), and AlphaScreen glutathione donor beads (PerkinElmer 6765302) were added to the assay wells and incubated for 10 minutes. The assay plates were then read on a PerkinElmer EnVision Multilabel Reader, using AlphaScreen® technology, and data were analyzed using a 4-parameter logistic model to calculate IC50 values.

Test [2] concerns the target His-tagged KRAS G12D protein (Homo sapiens (Human), UniProt P01116, G12D). The test is described as follows: KRAS G12D TR-FRET Assay. The class given is binding. As to the method: Compounds of interest were prepared in a dose-response titration in DMSO, and 80 nL were added via Labcyte Echo to each well of a 384-well plate (Perkin Elmer 6008280). The His-tagged KRAS G12D protein (Amgen) was diluted to 20 nM in Assay Buffer (20 mM HEPES, pH 7.4, 10 mM MgCl2, 50 mM NaCl, 0.1% BSA, 0.01% Tween-20, 10 μM GDP) and 2 μL was added to the appropriate wells of the 384-well plate. The plate was incubated for 30 minutes at room temperature. Biotinylated KRPep-2d substrate (Amgen) was diluted to 20 nM in Assay Buffer and 2 μL was added to all wells and incubated for 1 hour at room temperature. Detection Reagent (0.4 nM LANCE Eu-W1024 Anti-6×His (Perkin Elmer AD0401), 5 nM streptavidin-d2 (Cisbio 610SADLA)) was prepared in Assay Buffer, then 4 μL was added to the plate and incubated for 1 hour at room temperature. Plates were read using PerkinElmer EnVision (ex: 320 nm, em1: 665 nm, em2: 615 nm) and em1/em2 data was used to generate curve fits using a 4-parameter logistic model to calculate IC50 values.

[3] abbreviates: read-out: KRAS G12D Coupled Exchange IC50.
[4] abbreviates: read-out: KRAS G12D Binding IC50.
Where [5] appears, read: 2 hours compound pre-incubation, read-out: KRAS G12D Coupled Exchange.
The mark [6] stands for this setting: TR-FRET, read-out: KRAS G12D Binding.

Read-outs that look alike come from different tables or passages of the source.

Sequence of GDP-bound KRAS protein (aa 1-169), containing both G12D and C118A amino acid substitutions (P01116 other isoform, or with tags, fused parts or gaps G12D/C118A): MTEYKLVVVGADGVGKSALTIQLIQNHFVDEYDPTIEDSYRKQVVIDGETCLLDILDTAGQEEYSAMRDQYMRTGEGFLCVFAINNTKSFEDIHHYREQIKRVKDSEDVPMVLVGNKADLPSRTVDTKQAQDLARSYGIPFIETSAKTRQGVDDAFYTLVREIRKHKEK
Sequence of His-tagged KRAS G12D protein (P01116 other isoform, or with tags, fused parts or gaps G12D): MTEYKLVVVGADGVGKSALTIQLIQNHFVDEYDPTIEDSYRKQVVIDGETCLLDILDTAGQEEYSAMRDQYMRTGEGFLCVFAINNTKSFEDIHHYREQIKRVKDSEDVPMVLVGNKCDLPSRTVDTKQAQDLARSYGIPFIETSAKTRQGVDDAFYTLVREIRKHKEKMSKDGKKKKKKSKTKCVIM

As for `Cc1cc2[nH]ncc2c2c1CCCCC(=O)N1CC3CCN(CC3C1)c1nc(OC[C@@]34CCCN3C[C@H](F)C4)nc3c(F)c-2ncc13` (mixture of isomers) [Example 57], the IC50 in test [1] (setting [3]) is 194 nM; in test [2] (setting [4]), 221 nM.

`CN1C(=O)CCCCc2c(Cl)cc3[nH]ncc3c2-c2ncc3c(nc(OC[C@@]45CCCN4C[C@H](F)C5)nc3c2F)N2CCOCC1C2` (mixture of isomers) [Example 64]: the IC50 turned out to be 81 nM in test [1] (setting [3]) and 98 nM in test [2] (setting [4]).

With `Cc1cc2[nH]ncc2c2c1CCCCC(=O)OC1CN(CC3(CC3)C1)c1nc(OC[C@@]34CCCN3C[C@H](F)C4)nc3c(F)c-2ncc13` (mixture of isomers) [Example 80, (17′R)-30′-fluoro-24′-(((2R,7aS)-2-fluorotetrahydro-1H-pyrrolo[1,2-a]pyrrol-7a(5H)-yl)methoxy)-9′-methyl-16′-oxa-5′,6′,21′,23′,25′,29′-hexaazaspiro[cyclopropane-1,19′-hexacyclo[24.3.1.1~17,21~.0~2,10~.0~3,7~.0~22,27~]hentriacontane]-1′(30′),2′,4′,7′,9′,22′,24′,26′,28′-nonaen-15′-one], the IC50 in test [1] (setting [3]) is 47 nM; in test [2] (setting [4]) it was 55 nM.

Consider `Cc1cc2[nH]ncc2c2c1CCCCC(=O)OC1CN(CC(F)(F)C1)c1nc(OC[C@@]34CCCN3C[C@H](F)C4)nc3c(F)c-2ncc13` (mixture of isomers) [Example 81], for which the IC50 in test [1] (setting [3]) amounted to 212 nM; in test [2] (setting [4]), 279 nM.

As for `Cc1cc2[nH]ncc2c2c1CCC(=O)OCCC1CCCN(C1)c1nc(OC[C@@]34CCCN3C[C@H](F)C4)nc3c(F)c-2ncc13` (mixture of isomers) [Example 107], the IC50 in test [1] (setting [3]) was 42 nM; in test [2] (setting [4]), 70 nM.

For `[O-][S+]1CCCCc2c(Cl)cc3[nH]ncc3c2-c2ncc3c(nc(OC[C@@]45CCCN4C[C@H](F)C5)nc3c2F)N2CCC[C@H](C2)C1` (mixture of isomers) [Example 144], the IC50 in test [1] (setting [3]) was found to be 79 nM; in test [2] (setting [4]), 146 nM.

On to `O[C@H]1C[C@@H]2CN(C1)c1nc(OC[C@@]34CCCN3C[C@H](F)C4)nc3c(F)c(ncc13)-c1c(c(Cl)cc3[nH]ncc13)CCCc1nc2no1` (mixture of isomers) [Example 377], for which the IC50 in test [1] (setting [5]) was found to be 2 nM; in test [2] (setting [6]), 5 nM.

As for `Cc1cc2[nH]ncc2c2c1CCCCC(=O)OC1CC[C@@H]3CC[C@H]1N3c1nc(OC[C@@]34CCCN3C[C@H](F)C4)nc3c(F)c-2ncc13` (racemic) [Example 86], the IC50 in test [1] (setting [3]) is 57 nM; in test [2] (setting [4]), 61 nM.

As for `O=C1CCCCc2c(Cl)cc3[nH]ncc3c2-c2ncc3c(nc(OC[C@@]45CCCN4C[C@H](F)C5)nc3c2F)N2C[C@H](O)C[C@@H](C2)N1` (racemic) [Example 276, (17S,19R)-9-chloro-30-fluoro-24-(((2R,7aS)-2-fluorotetrahydro-1H-pyrrolo[1,2-a]pyrrol-7a(5H)-yl)methoxy)-19-hydroxy-5,6,16,21,23,25,29-heptaazahexacyclo[24.3.1.1~17,21~.0~2,10~.0~3,7~.0~22,27~]hentriaconta-1(30),2,4,7,9,22,24,26,28-nonaen-15-one], the values for the IC50 in test [1] (setting [3]) and in test [2] (setting [4]) were 153 nM and 498 nM, respectively.

On to `Cc1cc2[nH]ncc2c2c1[C@@H]1C[C@@H]1CCOC[C@H]1CN(CCO1)c1nc(OC[C@@]34CCCN3C[C@H](F)C4)nc3c(F)c-2ncc13` (single isomer, unassigned) [Example 225], for which the IC50 in test [1] (setting [3]) is 4770 nM; in test [2] (setting [4]), 9620 nM.

In the case of `Fc1c2ncc3c(nc(OC[C@@]45CCCN4C[C@H](F)C5)nc13)N1CCO[C@]3(C1)C[C@H](C3)OCCCCc1c(Cl)cc3[nH]ncc3c1-2` (single isomer, unassigned) [Example 262], the IC50 in test [1] (setting [3]) worked out at 2420 nM; in test [2] (setting [4]) it was 3260 nM.

As for `Cc1cc2[nH]ncc2c2c1CCOC(=O)O[C@H]1C[C@@]3(CCCN(C3)c3nc(OC[C@@H]4CCCN4C)nc4c(F)c-2ncc34)C1` (single isomer, unassigned) [Example 325], the IC50 stood at 65 nM in test [1] (setting [3]) and 99 nM in test [2] (setting [4]).

Take `O=C1CCCCc2c(Cl)cc3[nH]ncc3c2-c2ncc3c(nc(OC[C@@]45CCCN4C[C@H](F)C5)nc3c2F)N2CC[C@H]3[C@@H](C2)N1CC3(F)F` (single isomer, unassigned) [Example 402]: the IC50 is 46 nM in test [1] (setting [5]) and 97 nM in test [2] (setting [6]).

As for `OC1c2ncc(o2)CCc2c(Cl)cc3[nH]ncc3c2-c2ncc3c(nc(OC[C@@]45CCCN4C[C@H](F)C5)nc3c2F)N2CCO[C@@H]1C2` (stereo in doubt) [Example 395, (17R,18R)-9-chloro-31-fluoro-25-(((2R,7aS)-2-fluorotetrahydro-1H-pyrrolo[1,2-a]pyrrol-7a(5H)-yl)methoxy)-19,33-dioxa-5,6,15,22,24,26,30-heptaazaheptacyclo[25.3.1.1~13,16~.1~18,22~.0~2,10~.0~3,7~.0~23,28~]tritriaconta-1(31),2,4,7,9,13,15,23,25,27,29-undecaen-17-ol], the IC50 in test [1] (setting [5]) is 198 nM; in test [2] (setting [6]), 1170 nM.

`COc1nc2c3cnc(c(F)c3n1)-c1cc(O)cc3ccc(F)c(c13)CCCC(=O)N[C@]1(C)CCCN2C1` [Example 6, (15R)-22,31-Difluoro-27-hydroxy-8-methoxy-15-methyl-3,7,9,11,16-pentaazahexacyclo[19.7.1.1˜2,6˜.1˜11,15˜.0˜5,10˜.0˜25,29˜]hentriaconta-1(28),2(31),3,5,7,9,21,23,25(29),26-decaen-17-one bis(2,2,2-trifluoroacetate)]: the figures for the IC50 in test [1] (setting [3]) and in test [2] (setting [4]) were 125 nM and 154 nM, respectively.

For `O=C1CCCCc2cccc3cc(O)cc(c23)-c2ncc3c(nc(OC[C@@]45CCCN4C[C@H](F)C5)nc3c2F)N2CCCN1CC2` [Example 9, 32-Fluoro-4-(((2R,7aS)-2-fluorotetrahydro-1H-pyrrolo[1,2-a]pyrrol-7a(5H)-yl)methoxy)-13-hydroxy-1,3,5,9,25-pentaazahexacyclo[23.3.2.1˜6,10˜.1˜11,15˜.0˜2,7˜.0˜19,31˜]dotriaconta-2,4,6(32),7,9,11(31),12,14,16,18-decaen-24-one bis(2,2,2-trifluoroacetate)], the IC50 in test [1] (setting [3]) was found to be 292 nM; in test [2] (setting [4]), 302 nM.

Regarding `[2H]C([2H])([2H])[C@]12COCCN(C1)c1nc(OC[C@@]34CCCN3C[C@H](F)C4)nc3c(F)c(ncc13)-c1c(c(C)cc3[nH]ncc13)CCCOC(=O)O2` [Example 351, (26R)-32-fluoro-4-(((2R,7aS)-2-fluorotetrahydro-1H-pyrrolo[1,2-a]pyrrol-7a(5H)-yl)methoxy)-18-methyl-26-(~2~H_3_)methyl-23,25,28-trioxa-1,3,5,9,14,15-hexaazahexacyclo[24.4.1.1~6,10~.0~2,7~.0~11,19~.0~12,16~]dotriaconta-2,4,6,8,10(32),11,13,16,18-nonaen-24-one], the IC50 in test [1] (setting [3]) came out at 149 nM.

Regarding `[2H]C([2H])([2H])[C@]12COCCN(C1)c1nc(OC[C@@]34CCCN3C[C@H](F)C4)nc3c(F)c(ncc13)-c1c(c(Cl)cc3[nH]ncc13)CCCOC(=O)O2` [Example 354, (26R)-18-chloro-32-fluoro-4-(((2R,7aS)-2-fluorotetrahydro-1H-pyrrolo[1,2-a]pyrrol-7a(5H)-yl)methoxy)-26-(~2~H_3_)methyl-23,25,28-trioxa-1,3,5,9,14,15-hexaazahexacyclo[24.4.1.1~6,10~.0~2,7~.0~11,19~.0~12,16~]dotriaconta-2,4,6(32),7,9,11,13,16,18-nonaen-24-one], the IC50 in test [1] (setting [3]) stood at 531 nM.
